ChEMBL document CHEMBL4138316, “Optimization of Isothiazolo[4,3- b]pyridine-Based Inhibitors of Cyclin G Associated Kinase (GAK) with Broad-Spectrum Antiviral Activity” (J Med Chem, 2018)
In brackets after ≈: the same amount, converted by molar mass. Activity calls are given as the source filed them. The calls are words filed in the database; no cut-off is given here.

Key:
Huh-7 [1] = assay: Cytotoxicity against human HuH7 cells after 48 hrs by Alamar Blue assay; type: cell-based; conditions: huh-7, 48 h
dengue virus type 2 [2] = assay: Antiviral activity against DENV2 New Guinea C infected in human HuH7 cells after 48 hrs by luciferase reporter gene assay; type: functional, organism-based; conditions: Huh-7, 48 h
[3] = molecular target: T1, Cyclin-G-associated kinase (Homo sapiens, UniProt O14976)
T1 sequence (O14976 whole entry): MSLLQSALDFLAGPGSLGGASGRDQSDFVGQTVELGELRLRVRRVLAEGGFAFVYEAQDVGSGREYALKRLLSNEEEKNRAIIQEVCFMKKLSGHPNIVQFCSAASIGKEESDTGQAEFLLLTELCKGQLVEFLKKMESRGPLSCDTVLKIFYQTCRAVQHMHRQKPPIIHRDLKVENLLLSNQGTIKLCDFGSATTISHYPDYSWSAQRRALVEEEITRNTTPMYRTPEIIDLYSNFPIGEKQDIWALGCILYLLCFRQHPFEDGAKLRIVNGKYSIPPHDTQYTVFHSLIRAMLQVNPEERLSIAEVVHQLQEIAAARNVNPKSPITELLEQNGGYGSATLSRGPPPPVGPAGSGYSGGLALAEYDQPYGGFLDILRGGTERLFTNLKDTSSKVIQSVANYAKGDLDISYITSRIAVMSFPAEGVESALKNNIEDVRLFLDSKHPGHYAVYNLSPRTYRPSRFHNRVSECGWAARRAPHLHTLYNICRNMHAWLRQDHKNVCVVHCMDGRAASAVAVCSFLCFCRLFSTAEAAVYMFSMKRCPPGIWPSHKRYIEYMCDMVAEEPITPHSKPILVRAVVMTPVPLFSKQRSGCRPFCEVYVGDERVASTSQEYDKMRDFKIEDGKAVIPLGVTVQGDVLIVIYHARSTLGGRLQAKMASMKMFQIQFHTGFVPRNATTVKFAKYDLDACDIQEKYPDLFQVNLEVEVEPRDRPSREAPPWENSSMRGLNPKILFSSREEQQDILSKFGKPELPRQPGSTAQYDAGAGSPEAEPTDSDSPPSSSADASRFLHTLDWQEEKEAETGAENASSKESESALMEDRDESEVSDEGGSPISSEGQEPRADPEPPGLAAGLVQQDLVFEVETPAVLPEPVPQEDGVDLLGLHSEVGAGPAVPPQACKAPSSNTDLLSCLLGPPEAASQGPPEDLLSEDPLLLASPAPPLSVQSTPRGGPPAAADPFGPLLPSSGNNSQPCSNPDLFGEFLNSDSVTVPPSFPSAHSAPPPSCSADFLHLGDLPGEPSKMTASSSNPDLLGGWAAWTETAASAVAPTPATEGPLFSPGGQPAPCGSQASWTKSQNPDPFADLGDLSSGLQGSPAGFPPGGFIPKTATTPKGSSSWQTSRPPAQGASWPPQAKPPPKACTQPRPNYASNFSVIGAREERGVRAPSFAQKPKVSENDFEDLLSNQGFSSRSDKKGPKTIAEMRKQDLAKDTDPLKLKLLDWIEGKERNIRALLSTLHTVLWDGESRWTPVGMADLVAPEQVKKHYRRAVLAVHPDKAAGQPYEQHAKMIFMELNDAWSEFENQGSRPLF

[4] = Apparent permeability cross apical to basolateral side in MDCK-MDR1 cells at 5 uM after 90 mins by LC-MS/MS analysis; type: ADME, cell-based, Canis lupus familiaris; conditions: dog, mdck-mdr1, 1.5 h
Huh-7 [5] = assay: Cytotoxicity against human HuH7 cells after 48 hrs by CellTiter-Glo assay; type: cell-based; conditions: huh-7, 48 h
[6] = Apparent permeability cross basolateral to apical side in MDCK-MDR1 cells at 5 uM after 90 mins by LC-MS/MS analysis; type: ADME, cell-based, Canis lupus familiaris; conditions: dog, mdck-mdr1, 1.5 h
[7] = Aqueous solubility in PBS buffer at pH 7.4 at 100 uM after 1 hr by LC-MS/MS analysis; type: physicochemical; conditions: pH 7.4, 1 h
Ebolavirus = assay: Antiviral activity against Ebolavirus infected in human HuH7 cells after 48 hrs by immunofluorescence assay; type: functional, cell-based; conditions: for EC90: Orthoebolavirus, Huh-7, 48 h
[8] = molecular target: Mast/stem cell growth factor receptor Kit (Homo sapiens, UniProt P10721); assay: Inhibition of wild-type human partial length KIT (I571 to D952 residues) expressed in bacterial expression system at 10 uM by ATP-site competition binding assay based KinomeScan assay relative to control
[9] = molecular target: Ephrin type-A receptor 7 (Homo sapiens) (UniProt Q15375); assay: Inhibition of wild-type human partial length EPHA7 (Y608 to S912 residues) expressed in bacterial expression system at 10 uM by ATP-site competition binding assay based KinomeScan assay relative to control
[10] = molecular target: Receptor-type tyrosine-protein kinase FLT3 (Homo sapiens) (UniProt P36888); assay: Inhibition of wild-type human partial length FLT3 (V592 to Y969 residues) expressed in bacterial expression system at 10 uM by ATP-site competition binding assay based KinomeScan assay relative to control
[11] = molecular target: Mitogen-activated protein kinase 14 (Homo sapiens) (UniProt Q16539); assay: Inhibition of wild-type human full length MAPK14 (M1 to S360 residues) expressed in bacterial expression system at 10 uM by ATP-site competition binding assay based KinomeScan assay relative to control
Dengue virus = assay: Antiviral activity against Dengue virus infected in doxycycline-inducible GAK (unkown origin) transfected TREx293 cells up to 20 uM after 72 hrs by luciferase reporter gene assay; type: functional, organism-based
[12] = molecular target: T2, Aurora kinase C (Homo sapiens) (UniProt Q9UQB9); assay: Inhibition of wild-type human full length AURKC (M1 to S275 residues) expressed in bacterial expression system at 10 uM by ATP-site competition binding assay based KinomeScan assay relative to control
T2 sequence (whole entry): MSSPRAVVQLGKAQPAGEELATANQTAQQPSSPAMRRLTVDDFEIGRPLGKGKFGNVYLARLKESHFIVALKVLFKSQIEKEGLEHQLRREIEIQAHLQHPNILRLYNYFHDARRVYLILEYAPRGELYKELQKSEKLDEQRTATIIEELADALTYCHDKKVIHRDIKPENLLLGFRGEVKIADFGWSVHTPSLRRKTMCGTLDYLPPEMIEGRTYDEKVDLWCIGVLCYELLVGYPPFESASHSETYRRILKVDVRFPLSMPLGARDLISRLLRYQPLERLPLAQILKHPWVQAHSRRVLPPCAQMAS

[13] = molecular target: T3, Dual specificity mitogen-activated protein kinase kinase 5 (Homo sapiens) (UniProt Q13163); assay: Inhibition of wild-type human partial length MAP2K5 (L98 to P448 residues) expressed in mammalian expression system at 10 uM by ATP-site competition binding assay based KinomeScan assay relative to control
T3 sequence (whole entry): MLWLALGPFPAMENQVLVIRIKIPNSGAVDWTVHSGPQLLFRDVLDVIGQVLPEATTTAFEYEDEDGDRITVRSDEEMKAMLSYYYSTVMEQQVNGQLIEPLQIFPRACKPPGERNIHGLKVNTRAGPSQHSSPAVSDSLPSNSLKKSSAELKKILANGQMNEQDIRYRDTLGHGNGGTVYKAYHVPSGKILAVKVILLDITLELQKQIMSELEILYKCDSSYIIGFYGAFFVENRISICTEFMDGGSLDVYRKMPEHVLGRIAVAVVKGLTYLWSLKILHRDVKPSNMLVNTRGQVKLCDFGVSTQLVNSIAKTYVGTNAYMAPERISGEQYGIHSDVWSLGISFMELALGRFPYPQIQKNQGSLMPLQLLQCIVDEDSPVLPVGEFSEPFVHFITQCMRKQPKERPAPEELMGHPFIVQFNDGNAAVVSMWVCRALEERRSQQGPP

[14] = molecular target: Platelet-derived growth factor receptor beta (Homo sapiens) (UniProt P09619); assay: Inhibition of wild-type human partial length PDGFRB (V582 to Y1009 residues) expressed in bacterial expression system at 10 uM by ATP-site competition binding assay based KinomeScan assay relative to control
[15] = Cytotoxicity against human MDDC cells after 72 hrs by Alamar Blue assay; type: cell-based
[16] = molecular target: Tyrosine-protein kinase ABL1 (Homo sapiens) (UniProt P00519); assay: Inhibition of wild-type human non-phosphorylated ABL1 (S229 to K512 residues) expressed in mammalian expression system at 10 uM by ATP-site competition binding assay based KinomeScan assay relative to control
dengue virus type 2 [17] = assay: Antiviral activity against DENV2 16881 infected in human MDDC after 72 hrs by plaque assay; type: functional, organism-based; conditions: Dengue virus, 16881, 72 h
Chikungunya virus = assay: Antiviral activity against Chikungunya virus AF15561 infected in African green monkey Vero cells preincubated for 48 hrs followed by viral infection measured after 48 hrs by plaque assay; type: functional, organism-based

Sequence of Ephrin type-A receptor 7 (Homo sapiens) (Q15375 28-998 limits assumed): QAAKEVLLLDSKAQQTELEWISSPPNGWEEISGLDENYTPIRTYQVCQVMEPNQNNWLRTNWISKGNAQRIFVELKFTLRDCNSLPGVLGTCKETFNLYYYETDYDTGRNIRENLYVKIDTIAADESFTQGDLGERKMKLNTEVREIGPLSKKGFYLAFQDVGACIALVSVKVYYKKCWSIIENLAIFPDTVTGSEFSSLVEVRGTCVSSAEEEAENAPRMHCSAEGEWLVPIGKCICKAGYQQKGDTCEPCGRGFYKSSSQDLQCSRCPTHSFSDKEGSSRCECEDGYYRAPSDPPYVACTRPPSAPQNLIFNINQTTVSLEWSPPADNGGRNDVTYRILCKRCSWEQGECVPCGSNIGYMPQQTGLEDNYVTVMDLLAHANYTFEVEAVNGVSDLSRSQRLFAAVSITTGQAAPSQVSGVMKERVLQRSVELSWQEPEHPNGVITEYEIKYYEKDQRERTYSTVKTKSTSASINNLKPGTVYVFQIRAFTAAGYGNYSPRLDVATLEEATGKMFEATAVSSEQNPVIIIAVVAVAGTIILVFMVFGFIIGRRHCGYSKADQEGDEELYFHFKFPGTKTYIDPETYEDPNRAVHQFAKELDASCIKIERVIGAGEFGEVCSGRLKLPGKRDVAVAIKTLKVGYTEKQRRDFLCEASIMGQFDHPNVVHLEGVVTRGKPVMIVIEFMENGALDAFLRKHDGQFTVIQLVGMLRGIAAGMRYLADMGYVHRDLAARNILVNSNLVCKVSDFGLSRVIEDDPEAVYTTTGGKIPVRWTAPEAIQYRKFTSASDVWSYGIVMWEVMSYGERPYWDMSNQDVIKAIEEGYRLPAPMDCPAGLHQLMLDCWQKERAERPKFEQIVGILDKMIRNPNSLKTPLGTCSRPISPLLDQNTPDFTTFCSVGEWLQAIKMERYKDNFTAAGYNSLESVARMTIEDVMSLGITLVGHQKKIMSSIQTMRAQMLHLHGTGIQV
Sequence of Platelet-derived growth factor receptor beta (Homo sapiens) (P09619 whole entry, the tested form may be a part): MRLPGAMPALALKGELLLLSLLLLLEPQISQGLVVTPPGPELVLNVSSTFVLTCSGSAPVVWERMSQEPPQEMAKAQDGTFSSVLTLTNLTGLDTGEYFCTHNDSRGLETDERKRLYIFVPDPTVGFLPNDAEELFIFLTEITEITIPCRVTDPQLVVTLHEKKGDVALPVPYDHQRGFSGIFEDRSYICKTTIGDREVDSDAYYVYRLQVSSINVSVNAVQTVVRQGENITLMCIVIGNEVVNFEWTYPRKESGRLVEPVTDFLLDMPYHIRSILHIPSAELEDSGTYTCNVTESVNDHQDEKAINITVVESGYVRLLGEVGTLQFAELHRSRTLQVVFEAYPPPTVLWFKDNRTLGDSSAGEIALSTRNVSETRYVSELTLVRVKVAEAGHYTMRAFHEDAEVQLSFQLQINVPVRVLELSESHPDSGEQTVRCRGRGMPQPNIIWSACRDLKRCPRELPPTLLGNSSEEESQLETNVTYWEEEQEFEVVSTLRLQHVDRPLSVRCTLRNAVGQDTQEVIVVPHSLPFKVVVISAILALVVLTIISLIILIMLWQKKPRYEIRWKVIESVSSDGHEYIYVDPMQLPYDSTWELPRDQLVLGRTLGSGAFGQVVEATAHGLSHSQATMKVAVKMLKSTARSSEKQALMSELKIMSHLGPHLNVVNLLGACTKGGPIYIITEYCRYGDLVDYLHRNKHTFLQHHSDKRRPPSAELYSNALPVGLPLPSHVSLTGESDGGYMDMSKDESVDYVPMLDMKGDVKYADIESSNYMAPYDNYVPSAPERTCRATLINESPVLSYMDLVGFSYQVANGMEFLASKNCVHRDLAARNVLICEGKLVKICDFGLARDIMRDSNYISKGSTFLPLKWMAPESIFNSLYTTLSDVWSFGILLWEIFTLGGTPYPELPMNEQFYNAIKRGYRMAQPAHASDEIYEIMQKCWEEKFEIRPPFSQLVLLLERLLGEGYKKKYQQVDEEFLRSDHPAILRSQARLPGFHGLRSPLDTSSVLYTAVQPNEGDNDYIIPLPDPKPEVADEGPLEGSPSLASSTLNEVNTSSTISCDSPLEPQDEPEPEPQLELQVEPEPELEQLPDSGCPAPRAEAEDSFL
Sequence of Mitogen-activated protein kinase 14 (Homo sapiens) (Q16539 whole entry, the tested form may be a part): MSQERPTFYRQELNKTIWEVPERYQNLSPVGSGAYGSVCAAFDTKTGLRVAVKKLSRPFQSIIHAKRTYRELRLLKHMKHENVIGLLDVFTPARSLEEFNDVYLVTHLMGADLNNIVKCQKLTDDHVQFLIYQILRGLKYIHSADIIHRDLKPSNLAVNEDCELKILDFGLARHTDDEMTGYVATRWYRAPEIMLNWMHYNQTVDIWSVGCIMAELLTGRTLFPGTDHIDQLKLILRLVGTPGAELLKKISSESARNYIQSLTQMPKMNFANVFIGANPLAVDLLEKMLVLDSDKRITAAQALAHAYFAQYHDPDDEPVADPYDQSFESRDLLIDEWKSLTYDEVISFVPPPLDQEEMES
Sequence of Mast/stem cell growth factor receptor Kit (P10721 whole entry, the tested form may be a part): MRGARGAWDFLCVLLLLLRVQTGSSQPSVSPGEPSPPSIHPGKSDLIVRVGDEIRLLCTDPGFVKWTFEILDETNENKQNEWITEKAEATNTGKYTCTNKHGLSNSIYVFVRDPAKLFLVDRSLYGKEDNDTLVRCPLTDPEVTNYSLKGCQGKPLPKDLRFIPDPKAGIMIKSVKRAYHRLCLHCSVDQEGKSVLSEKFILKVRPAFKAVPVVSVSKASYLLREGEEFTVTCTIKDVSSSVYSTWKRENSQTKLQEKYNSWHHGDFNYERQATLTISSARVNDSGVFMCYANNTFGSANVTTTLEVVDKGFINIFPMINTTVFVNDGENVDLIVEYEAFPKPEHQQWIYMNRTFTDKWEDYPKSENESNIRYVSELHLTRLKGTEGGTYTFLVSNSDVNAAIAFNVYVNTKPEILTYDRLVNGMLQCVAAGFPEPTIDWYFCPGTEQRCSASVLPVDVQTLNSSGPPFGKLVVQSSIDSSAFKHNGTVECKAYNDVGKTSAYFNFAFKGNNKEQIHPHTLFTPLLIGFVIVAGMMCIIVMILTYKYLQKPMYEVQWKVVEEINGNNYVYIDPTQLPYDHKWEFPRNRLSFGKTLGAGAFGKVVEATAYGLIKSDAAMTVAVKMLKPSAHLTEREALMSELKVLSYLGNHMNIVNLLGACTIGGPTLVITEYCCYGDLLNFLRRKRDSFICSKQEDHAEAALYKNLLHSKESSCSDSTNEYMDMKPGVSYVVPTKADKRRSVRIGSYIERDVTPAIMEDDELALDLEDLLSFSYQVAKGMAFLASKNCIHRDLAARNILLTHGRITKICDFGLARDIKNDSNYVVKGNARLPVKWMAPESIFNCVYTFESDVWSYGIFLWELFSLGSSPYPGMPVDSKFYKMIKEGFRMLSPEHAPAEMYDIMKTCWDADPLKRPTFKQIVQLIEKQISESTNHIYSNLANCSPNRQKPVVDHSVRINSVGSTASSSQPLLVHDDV
Sequence of Tyrosine-protein kinase ABL1 (Homo sapiens) (P00519 whole entry, the tested form may be a part): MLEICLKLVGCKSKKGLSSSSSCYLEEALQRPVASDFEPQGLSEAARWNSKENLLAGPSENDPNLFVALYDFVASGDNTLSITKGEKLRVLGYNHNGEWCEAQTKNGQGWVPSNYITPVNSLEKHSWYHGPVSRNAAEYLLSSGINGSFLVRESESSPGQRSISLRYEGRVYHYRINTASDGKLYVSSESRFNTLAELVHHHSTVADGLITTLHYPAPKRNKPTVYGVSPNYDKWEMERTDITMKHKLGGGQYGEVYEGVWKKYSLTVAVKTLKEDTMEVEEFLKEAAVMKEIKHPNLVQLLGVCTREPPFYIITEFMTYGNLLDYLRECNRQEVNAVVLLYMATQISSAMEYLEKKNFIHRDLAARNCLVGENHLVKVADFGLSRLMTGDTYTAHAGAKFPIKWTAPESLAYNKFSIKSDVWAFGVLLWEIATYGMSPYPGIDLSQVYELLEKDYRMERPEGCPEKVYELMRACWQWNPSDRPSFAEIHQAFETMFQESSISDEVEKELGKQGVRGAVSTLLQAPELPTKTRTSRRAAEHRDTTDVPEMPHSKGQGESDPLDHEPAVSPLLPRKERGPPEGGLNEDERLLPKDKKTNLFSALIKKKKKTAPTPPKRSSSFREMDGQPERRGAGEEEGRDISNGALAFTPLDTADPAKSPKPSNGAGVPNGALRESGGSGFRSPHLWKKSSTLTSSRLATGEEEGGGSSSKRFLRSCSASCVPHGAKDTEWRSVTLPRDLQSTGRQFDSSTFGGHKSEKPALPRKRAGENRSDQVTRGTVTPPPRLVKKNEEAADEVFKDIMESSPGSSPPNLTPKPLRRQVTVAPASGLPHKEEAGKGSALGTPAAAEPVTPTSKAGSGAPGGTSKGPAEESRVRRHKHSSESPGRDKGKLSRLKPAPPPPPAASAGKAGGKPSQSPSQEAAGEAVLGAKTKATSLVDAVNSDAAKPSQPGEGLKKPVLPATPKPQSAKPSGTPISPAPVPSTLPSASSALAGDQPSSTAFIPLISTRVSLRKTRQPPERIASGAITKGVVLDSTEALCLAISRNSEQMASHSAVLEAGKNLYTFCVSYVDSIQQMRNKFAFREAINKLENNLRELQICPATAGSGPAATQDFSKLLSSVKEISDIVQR

COc1cc(-c2cnc3c(N4CCOC[C@@H]4C)snc3c2)ccc1N
CC50 (Huh-7 [1]): 6.32 µM

COc1cc(-c2cnc3c(N4CCC(C(N)=O)CC4)snc3c2)ccc1N
CC50 (Huh-7 [1]): > 10 µM

COc1cc(-c2cnc3c(N4C[C@@H](C)O[C@H](C)C4)snc3c2)ccc1N (relative stereo)
EC50 (dengue virus type 2 [2]): 0.7 µM
EC90 (dengue virus type 2 [2]): 2.15 µM
CC50 (Huh-7 [1]): > 10 µM

COc1cc(-c2cnc3c(N4CCC(F)(F)CC4)snc3c2)ccc1N
CC50 (Huh-7 [1]): > 10 µM

COc1cc(-c2cnc3c(N4CCS(=O)(=O)CC4)snc3c2)ccc1N
CC50 (Huh-7 [1]): > 10 µM

COc1cc(-c2cnc3c(NC4CCOCC4)snc3c2)ccc1N
CC50 (Huh-7 [1]): > 20 µM

COc1cc(-c2cnc3c(N4CC5(COC5)C4)snc3c2)ccc1N
Kd [3]: 0.17 µM
EC50 (dengue virus type 2 [2]): 7.12 µM
EC90 (dengue virus type 2 [2]): > 10 µM
CC50 (Huh-7 [1]): > 10 µM

COc1cc(-c2cnc3c(N4CCCC(C(N)=O)C4)snc3c2)ccc1N (stereo not drawn)
CC50 (Huh-7 [1]): > 10 µM

COc1cc(-c2cnc3c(N4CCOC[C@H]4C)snc3c2)ccc1N
CC50 (Huh-7 [1]): > 10 µM

COc1cc(-c2cnc3c(N4CCOCC4)snc3c2)ccc1N
Papp [4]: 45.45 ×10⁻⁶ cm/s
CC50 (Huh-7 [5]): 11 µM
Papp [6]: 30.8 ×10⁻⁶ cm/s
solubility [7]: 3.44 µM (≈ 1.18 µg/mL)
EC50 (dengue virus type 2 [2]): 1.84 µM
EC90 (dengue virus type 2 [2]): 8.05 µM
EC90 (Ebolavirus): 21.9 µM

COc1cc(-c2cnc3c(N4CCOC(C)C4)snc3c2)ccc1N (racemic)
CC50 (Huh-7 [5]): 9.4 µM
CC50 (Huh-7 [1]): 21.5 µM
Activity (Ebolavirus): Dose-dependent effect

COc1cc(-c2cnc3c(N4CC5CCC(C4)O5)snc3c2)ccc1N
CC50 (Huh-7 [1]): > 10 µM

COCCc1ccc(OCC(O)CNC(C)C)cc1 (stereo not drawn) [METOPROLOL]
Papp [4]: 39.29 ×10⁻⁶ cm/s
Papp [6]: 30.66 ×10⁻⁶ cm/s

COc1cc(-c2cnc3c(N4CCOC(C)(C)C4)snc3c2)ccc1N
CC50 (Huh-7 [1]): 4.14 µM

COc1cc(-c2cnc3c(N4CCC(N)CC4)snc3c2)ccc1N
CC50 (Huh-7 [1]): > 10 µM

COc1cc(-c2cnc3c(N4CCO[C@@H](C)C4)snc3c2)ccc1N
CC50 (Huh-7 [1]): > 25 µM
Activity (Ebolavirus): Dose-dependent effect

COc1cc(-c2cnc3c(N4CCO[C@H](C)C4)snc3c2)ccc1N
CC50 (Huh-7 [5]): > 10 µM
CC50 (Huh-7 [1]): 20.7 µM
Activity (Ebolavirus): Dose-dependent effect

COc1cc(-c2cnc3c(N4CCCOCC4)snc3c2)ccc1N
CC50 (Huh-7 [1]): > 10 µM

COc1cc(-c2cnc3c(N4CCC(C#N)CC4)snc3c2)ccc1N
CC50 (Huh-7 [1]): 2.09 µM

COc1cc(-c2cnc3c(N4CCNC(=O)C4)snc3c2)ccc1N
Papp [4]: 30.32 ×10⁻⁶ cm/s
Papp [6]: 43.48 ×10⁻⁶ cm/s
solubility [7]: 51.3 µM (≈ 18.2 µg/mL)
CC50 (Huh-7 [1]): > 10 µM

COc1cc(-c2cnc3c(N4CCCCC4)snc3c2)ccc1N
CC50 (Huh-7 [1]): > 10 µM

CC(C)NCC(O)COc1cccc2ccccc12 (stereo not drawn) [PROPRANOLOL]
solubility [7]: 117 µM (≈ 30.3 µg/mL)

COc1cc(-c2cnc3c(N4C[C@@H](C)O[C@@H](C)C4)snc3c2)ccc1N
inhibition [8]: > 90%
inhibition [9]: > 90%
inhibition [10]: > 90%
inhibition [11]: > 90%
Activity (Dengue virus): inactive
Papp [4]: 31.33 ×10⁻⁶ cm/s
CC50 (Huh-7 [5]): > 10 µM
Papp [6]: 18.28 ×10⁻⁶ cm/s
Kd [3]: 0.089 µM
solubility [7]: 0.52 µM (≈ 0.193 µg/mL)
inhibition [12]: > 90%
inhibition [13]: > 90%
inhibition [14]: > 90%
CC50 [15]: > 20 µM
EC50 (dengue virus type 2 [2]): 0.82 µM
EC90 (dengue virus type 2 [2]): 1.76 µM
inhibition [16]: > 90%
CC50 (Huh-7 [1]): > 25 µM
EC90 (Ebolavirus): 7.73 µM
EC50 (dengue virus type 2 [17]): 3.54 µM
Activity (Chikungunya virus): Dose-dependent effect
